In PMC10955571 (ACS Omega, 2024):
Where a SMILES comes first, the peptide text is derived from it. The star is where a group is joined. Isobutyryl = CC(C)C(=O)*; Cbz = O=C(OCc1ccccc1)*; OAll = C=CCO*

Assays:
BACE-1 = BACE-1 (Homo sapiens, UniProt P56817); assay: BACE-1 FRET inhibition assay; type: biochemical
Human AChE = Human AChE (Homo sapiens, UniProt P22303); assay: AChE inhibition, Ellman assay; type: biochemical
PAMPA-BBB permeability = conditions: for Papp at 5 h, 200 μM: PAMPA, pH 7.4
[1] = tested on: scopolamine-induced memory impairment in mice; assay: Morris water maze test, scopolamine-induced memory impairment; type: in vivo, Swiss albino mice; conditions: MWM, one animal from each group; for time taken by the animals to reach the platform, after the training (5th day): basal reading before any treatment; for time taken by the animals to reach the platform, after treatment with the test compound/donepezil (11th day): before scopolamine; for time taken by the animals to reach the platform, after treatment with the test compound/donepezil (11th day) / time taken by the animals to reach the platform, after treatment with scopolamine (14th day): compounds 10 mg/kg, donepezil 3 mg/kg; for time taken by the animals to reach the platform, after treatment with scopolamine (14th day): scopolamine 2 mg/kg i.p. days 12-14
Aβ1–42 = Aβ1–42 (Homo sapiens, UniProt P05067); assay: Inhibition of Aβ1–42 self-induced aggregation, Thioflavin-T fluorometric assay; type: biochemical; conditions: read-out: % inhibition of Aβ1–42 aggregation at 10 μM, 10 μM compound
Plasma stability assay = type: in vitro ADME

Sequence of Aβ1–42 (P05067 672-713): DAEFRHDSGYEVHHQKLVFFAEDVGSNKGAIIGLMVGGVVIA
Sequence of Human AChE (P22303 32-614): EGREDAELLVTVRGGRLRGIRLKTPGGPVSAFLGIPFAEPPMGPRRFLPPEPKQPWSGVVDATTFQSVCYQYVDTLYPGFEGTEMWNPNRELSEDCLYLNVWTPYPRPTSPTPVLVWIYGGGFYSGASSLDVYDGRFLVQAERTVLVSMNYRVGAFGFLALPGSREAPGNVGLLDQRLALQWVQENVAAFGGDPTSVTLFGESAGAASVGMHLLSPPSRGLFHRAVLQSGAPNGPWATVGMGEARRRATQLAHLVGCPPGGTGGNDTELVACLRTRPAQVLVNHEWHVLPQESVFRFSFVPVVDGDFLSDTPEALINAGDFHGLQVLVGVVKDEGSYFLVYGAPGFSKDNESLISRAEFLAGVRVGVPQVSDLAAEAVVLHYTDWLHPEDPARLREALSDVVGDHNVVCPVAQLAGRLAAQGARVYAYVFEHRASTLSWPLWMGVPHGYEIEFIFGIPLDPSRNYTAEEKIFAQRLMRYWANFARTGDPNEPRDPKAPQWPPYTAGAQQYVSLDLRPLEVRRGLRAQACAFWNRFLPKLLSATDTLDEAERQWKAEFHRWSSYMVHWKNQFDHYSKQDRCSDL
Sequence of BACE-1 (P56817 46-501): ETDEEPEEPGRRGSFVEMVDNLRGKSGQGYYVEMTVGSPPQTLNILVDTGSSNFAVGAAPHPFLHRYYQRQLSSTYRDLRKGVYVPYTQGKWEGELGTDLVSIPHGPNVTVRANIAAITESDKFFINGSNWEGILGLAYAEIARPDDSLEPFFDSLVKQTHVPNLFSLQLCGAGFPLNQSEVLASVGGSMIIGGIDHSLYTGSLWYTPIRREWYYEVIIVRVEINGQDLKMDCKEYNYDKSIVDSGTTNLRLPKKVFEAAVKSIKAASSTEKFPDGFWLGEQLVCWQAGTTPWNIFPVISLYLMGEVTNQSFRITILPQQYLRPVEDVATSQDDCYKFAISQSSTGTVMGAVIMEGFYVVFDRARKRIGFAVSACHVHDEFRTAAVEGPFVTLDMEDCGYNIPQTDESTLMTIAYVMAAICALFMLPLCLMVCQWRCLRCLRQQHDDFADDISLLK

SMILES	IC50 (BACE-1)	IC50 (Human AChE)	Papp at 5 h, 200 μM (PAMPA-BBB permeability)	time taken by the animals to reach the platform, after the training (5th day) [1]	time taken by the animals to reach the platform, after treatment with the test compound/donepezil (11th day) [1]	time taken by the animals to reach the platform, after treatment with scopolamine (14th day) [1]	inhibition at 10 µM (Aβ1–42)	further results
COC(=O)[C@H](C)NC(=O)[C@@H]1CCCN1C(=O)CNC(=O)OCc1ccccc1 [Compound 21, Cbz-Gly-Pro-Ala-OMe] (Cbz-Gly-Pro-Ala-OMe)	30 ± 4.1 µM	1000 ± 9.5 µM						IC50 AChE (Human AChE; Ellman assay, mean ± SEM): millimolar range
CC(C)C(=O)NCC(=O)N1CCC[C@H]1C(=O)N[C@@H](C)C(=O)OC/C=C/c1ccccc1 [Compound 17, Isobut-Gly-Pro-Ala-O-Cinnamyl]	0.1 ± 0.01 µM	0.9 ± 0.1 µM	3.64 ×10⁻⁶ cm/s					
CC(C)=CCC/C(C)=C/COC(=O)[C@H](C)NC(=O)[C@@H]1CCCN1C(=O)CNC(=O)C(C)C [Compound 18, Isobut-Gly-Pro-Ala-O-Geranyl]	20 ± 2 µM	7 ± 1.3 µM	3.17 ×10⁻⁶ cm/s	5 s	5 s	71 s	12.5 ± 2.1%	
CC(C)=CCOC(=O)[C@H](C)NC(=O)[C@@H]1CCCN1C(=O)CNC(=O)OCc1ccccc1 [Compound 24, Cbz-Gly-Pro-Ala-O-dimethylallyl]	20 ± 2.3 µM	0.6 ± 0.03 µM						
C(=C\n1nncc1COc1ccc2ccccc2c1-c1c(OCc2cnnn2/C=C/Cc2ccccc2)ccc2ccccc12)/Cc1ccccc1 [Compound 33, 2,2′-Bis((1-((E)-3-phenylprop-1-en-1-yl)-1H-1,2,3-triazol-5-yl)methoxy)-1,1′-binaphthalene]	1 ± 0.1 µM	7 ± 1.4 µM	1.59 ×10⁻⁶ cm/s				43.2 ± 4.7%	
C[C@H](NC(=O)[C@@H]1CCCN1C(=O)CNC(=O)OCc1ccccc1)C(=O)OC/C=C/c1ccccc1 [Compound 25, Cbz-Gly-Pro-Ala-O-cinnamyl]	0.02 ± 0.001 µM	1 ± 0.2 µM	17.8 ×10⁻⁶ cm/s	20 s	15 s	15 s	> 50%	change in the concentration in plasma (Plasma stability assay; 50 μM in plasma pH 7–8, 37 °C, 12 h incubation): ~10%; effect of plasma on the half-life time (Plasma stability assay; 50 μM in plasma, 37 °C): no remarkable effect on the half-life time
COC(=O)[C@H](C)NC(=O)[C@@H]1CCCN1C(=O)CNC(=O)C(C)C [Compound 13, Isobut-Gly-Pro-Ala-OMe] (Isobutyryl-Gly-Pro-Ala-OMe)	0.2 ± 0.03 µM	7 ± 1 µM					36.3 ± 4.3%	
CN1[C@@H]2C[C@@H](OC(=O)[C@H](CO)c3ccccc3)C[C@H]1[C@@H]1O[C@@H]12 [scopolamine, reference compound]						77 s		
COc1cc2c(cc1OC)C(=O)C(CC1CCN(Cc3ccccc3)CC1)C2 (stereo not shown) [donepezil, reference compound]				15 s	17 s	10 s	10.9 ± 1.4%	
CC(C)=CCC/C(C)=C/COC(=O)[C@H](C)NC(=O)[C@@H]1CCCN1C(=O)CNC(=O)OCc1ccccc1 [Compound 26, Cbz-Gly-Pro-Ala-O-Geranyl]	0.1 ± 0.01 µM	0.7 ± 0.1 µM		7 s	39 s	45 s	31.8 ± 3.2%	
C=CCOC(=O)[C@H](C)NC(=O)[C@@H]1CCCN1C(=O)CNC(=O)C(C)C [Compound 15, Isobut-Gly-Pro-Ala-O-allyl] (Isobutyryl-Gly-Pro-Ala-OAll)	0.05 ± 0.001 µM	0.05 ± 0.01 µM	1.8 ×10⁻⁶ cm/s	11 s	11 s	93 s	> 50%	
COC(=O)[C@H](C)NC(=O)[C@@H]1CCCN1C(=O)CN [Compound 30, NH2-Gly-Pro-Ala-OMe] (H-Gly-Pro-Ala-OMe)	0.02 ± 0.001 µM	2 ± 1.1 µM	8.98 ×10⁻⁶ cm/s	20 s	12 s	65 s	33.7 ± 4.2%	
Cn1c(=O)c2c(ncn2C)n(C)c1=O [caffeine, reference compound]			10.9 ×10⁻⁶ cm/s					Pe (PAMPA-BBB) (PAMPA-BBB permeability; 200 μM in PBS pH 7.4, 5 h, room temperature): 10.9 × 10^–6 cm s^–1
CCn1cc(C(=O)O)c(=O)c2cc(F)c(N3CCNCC3)cc21 [norfloxacin, reference compound]			1.73 ×10⁻⁶ cm/s					
CC(C)=CCOC(=O)[C@H](C)NC(=O)[C@@H]1CCCN1C(=O)CNC(=O)C(C)C [Compound 16, Isobut-Gly-Pro-Ala-O-dimethylallyl]	0.2 ± 0.01 µM	1 ± 0.1 µM						
C[C@H](NC(=O)[C@@H]1CCCN1C(=O)CNC(=O)OCc1ccccc1)C(=O)O [Compound 22, Cbz-Gly-Pro-Ala-OH] (Cbz-Gly-Pro-Ala-OH)	0.3 ± 0.02 µM	0.1 ± 0.01 µM						
C=CCOC(=O)[C@H](C)NC(=O)[C@@H]1CCCN1C(=O)CNC(=O)OCc1ccccc1 [Compound 23, Cbz-Gly-Pro-Ala-O-Allyl] (Cbz-Gly-Pro-Ala-OAll)	1 ± 0.2 µM	0.8 ± 0.1 µM						
CC(C)C(=O)NCC(=O)N1CCC[C@H]1C(=O)N[C@@H](C)C(=O)O [Compound 14, Isobut-Gly-Pro-Ala-OH] (Isobutyryl-Gly-Pro-Ala-OH)	0.6 ± 0.05 µM	8 ± 1.2 µM						
